Counter-ions that a name gives are not always drawn. Like-named read-outs stand apart in the source and are kept apart here.
Test system: T1, 1N4R p-tau
T1 construct: made in house; host or cells: E. coli (PIMAX system)
Experiment: p-tau aggregation modulator screen of 1280-compound library (ThS fluorescence net change over 16 h)
Format: biochemical
Set-up: key to PTAI>2SD: *: PTAI>2SD; key to PTAI>3SD: *: PTAI>3SD

[1] = p-tau aggregation modulator screen of 1280-compound library, ThS fluorescence net change
[2] = 1280-compound library screen, ThS fluorescence net change over 16 h
[3] = library screen, ThS fluorescence net change over 16 h with p-tau
[4] = p-tau aggregation modulator screen of the compound library, ThS fluorescence net change
[5] = p-tau aggregation modulator screen of 1280-compound library, […]

`C[N+]1(C)CCC(=C(c2ccccc2)c2ccccc2)CC1` [Diphemanil methylsulfate] showed a ThS net change [1] of 350.
`CN(C)CCOC(c1ccccc1)c1ccccc1` [Diphenhydramine hydrochloride] was tested, and the ThS net change [1] was 335.
`OC(CCCN1CCCCC1)(c1ccccc1)c1ccccc1` [Diphenidol hydrochloride] was tested, and the ThS net change [1] was 345.
In the case of `CN1CCC(OC(c2ccccc2)c2ccccc2)CC1` [Diphenylpyraline hydrochloride], the ThS net change [2] is reported as 380.
`CNCC(O)c1ccc(OC(=O)C(C)(C)C)c(OC(=O)C(C)(C)C)c1` (centres unmarked) [Dipivefrin hydrochloride] gave a ThS net change [1] of 357.
For `Cn1c(=O)c2c(ncn2CC(O)CO)n(C)c1=O` (centres unmarked) [Diprophylline], the ThS net change [2] was 381.
For `OCCN(CCO)c1nc(N2CCCCC2)c2nc(N(CCO)CCO)nc(N3CCCCC3)c2n1` [Dipyridamole], the “PTAI>3SD” value (flag: p-tau aggregation inhibitor, ThS net change more than 3 SD from mean) was “*” and the ThS net change [3] was -5843.
For `Cc1c(N(C)CS(=O)(=O)[O-])c(=O)n(-c2ccccc2)n1C.[Na+]` [Dipyrone], the ThS net change [1] was 363.
`CC[C@H]1OC(=O)[C@H](C)[C@@H](O[C@H]2C[C@@](C)(OC)[C@@H](O)[C@H](C)O2)[C@H](C)[C@@H](O[C@@H]2O[C@H](C)C[C@H](N(C)C)[C@H]2O)[C@](C)(O)C[C@@H](C)[C@@H]2N[C@@H](COCCOC)O[C@H]([C@H]2C)[C@]1(C)O` [Dirithromycin] showed a ThS net change [4] of 418.
`CC(C)N(CCC(C(N)=O)(c1ccccc1)c1ccccn1)C(C)C` (centres unmarked) [Disopyramide] showed a ThS net change [1] of 377.
Molecule `CCN(CC)C(=S)SSC(=S)N(CC)CC` [Disulfiram] has a ThS net change [1] of 339.
For `C[C@]12N[C@H](Cc3ccccc31)c1ccccc12` [Dizocilpine maleate], the ThS net change [5] was 349.
For `CC(CCc1ccc(O)cc1)NCCc1ccc(O)c(O)c1` (centres unmarked) [Dobutamine hydrochloride], the ThS net change [3] was 257.
`CC(=O)O[C@@]12CO[C@@H]1C[C@H](O)[C@@]1(C)C(=O)[C@H](O)C3=C(C)[C@@H](OC(=O)[C@H](O)[C@@H](NC(=O)OC(C)(C)C)c4ccccc4)C[C@@](O)([C@@H](OC(=O)c4ccccc4)[C@H]21)C3(C)C` [Docetaxel] showed a ThS net change [4] of 542.
Molecule `CN(CCOc1ccc(NS(C)(=O)=O)cc1)CCc1ccc(NS(C)(=O)=O)cc1` [Dofetilide] has a ThS net change [2] of 388.
`CS(=O)(=O)O.O.O=C(O[C@@H]1C[C@@H]2C[C@@H]3C[C@H](C1)N2CC3=O)c1c[nH]c2ccccc12` [Dolasetron mesilate] gave a ThS net change [5] of 353.
In the case of `O=c1[nH]c2ccccc2n1CCCN1CCC(n2c(=O)[nH]c3cc(Cl)ccc32)CC1` [Domperidone], the ThS net change [2] is reported as 392.
For `COc1cc2c(cc1OC)C(=O)C(CC1CCN(Cc3ccccc3)CC1)C2` (centres unmarked) [Donepezil hydrochloride], the ThS net change [4] was 435.
`NCCc1ccc(O)c(O)c1` [Dopamine hydrochloride] was tested, and the ThS net change [2] was 404.
`NCCc1ccc(O)c(O)c1` [Dopamine, reference compound] was tested, and the “effect on p-tau aggregation in pilot screen” value (30 µM compound, 6 µM p-tau, 16 h) was “none of them affected p-tau aggregation”.
For `CCN[C@H]1C[C@H](C)S(=O)(=O)c2sc(S(N)(=O)=O)cc21` [Dorzolamide hydrochloride], the ThS net change [4] was 463.
Work on `CN(C)CC/C=C1\c2ccccc2CSc2ccccc21` [Dosulepin hydrochloride] yielded a ThS net change [3] of 311.
Work on `CCN1CC(CCN2CCOCC2)C(c2ccccc2)(c2ccccc2)C1=O.Cl` (centres unmarked) [Doxapram hydrochloride] yielded a ThS net change [4] of 418.
`COc1cc2nc(N3CCN(C(=O)C4COc5ccccc5O4)CC3)nc(N)c2cc1OC` (centres unmarked) [Doxazosin mesylate] showed a ThS net change [3] of 310.
For `CN(C)CCC=C1c2ccccc2COc2ccccc21` [Doxepin hydrochloride], the ThS net change [1] was 341.
`Cn1c(=O)c2c(ncn2CC2OCCO2)n(C)c1=O` [Doxofylline] showed a ThS net change [4] of 451.
Work on `COc1cccc2c1C(=O)c1c(O)c3c(c(O)c1C2=O)C[C@@](O)(C(=O)CO)C[C@@H]3O[C@H]1C[C@H](N)[C@H](O)[C@H](C)O1` [Doxorubicin hydrochloride] yielded a ThS net change of 249.
`C[C@H]1c2cccc(O)c2C(=O)C2=C(O)[C@]3(O)C(=O)C(C(N)=O)=C(O)[C@@H](N(C)C)[C@@H]3[C@@H](O)[C@@H]21` [Doxycycline hydrochloride] was tested, and the “PTAI>2SD” value (flag: p-tau aggregation inhibitor, ThS net change more than 2 SD from mean) was “*” and the ThS net change [3] was 174.
`CN(C)CCOC(C)(c1ccccc1)c1ccccn1` (centres unmarked) [Doxylamine succinate] gave a ThS net change [1] of 367.
In the case of `CCN(CC)CCOC(=O)C(c1ccccc1)C1CCCCC1` (centres unmarked) [Drofenine hydrochloride], the ThS net change [2] is reported as 388.
For `O=C(CCCN1CC=C(n2c(=O)[nH]c3ccccc32)CC1)c1ccc(F)cc1` [Droperidol], the ThS net change [2] was 412.
In the case of `CCCCOc1ccc(C(=O)CCN2CCCCC2)cc1` [Dyclonine hydrochloride], the ThS net change [2] is reported as 406.
`CC(=O)[C@H]1CC[C@H]2[C@@H]3C=CC4=CC(=O)CC[C@@]4(C)[C@@H]3CC[C@]12C` [Dydrogesterone] showed a ThS net change [1] of 371.

Reference: publication PMC7539012, “Hyperphosphorylated tau aggregation and cytotoxicity modulators screen identified prescription drugs linked to Alzheimer's disease and cognitive functions” (Scientific Reports, 2020)
